The values below come from patent US9255088B2, “Premature-termination-codons readthrough compounds” (The Regents of the University of California, priority 2010, dated 2016).

In test [1] the test system is ATMs1981 autophosphorylation in AT153LA cells (TGA). Description: Flow cytometry ATMs1981 autophosphorylation (FC-ATM) in AT153LA cells. For FCATMs1981: key: the positive results on various assays are also summarized and labeled as '+'. Format: cell-based, human. The arrangement: FC-ATM (Delta-FI, 30 μM): unit not given here. As to conditions: for FCATMs1981: summary of positive results. The procedure:
FC-SMC1 assay was performed as recently described (Nahas et al., 2009). FC-ATM-Ser1981 assay was based on Honda's assay (Honda et al., 2009, Leukemia. 23:409-414) with modifications. In brief, cells were resuspended in PBS and radiated for 10 Gy. After 1 h, the cells were fixed and permeabilized using the FIX & PERM cell permeabilization kit (Invitrogen). The cells were then incubated with 1 μl of mouse ATM-Ser1981 antibody (Cell Signaling Technology) for 2 h at room temperature. Cells were washed and resuspended in 100 μl PBS with Alexa Fluor 488 anti-mouse IgG (Invitrogen) for 45 min. Cells were next washed and resuspended in PBS with 0.2% paraformaldehyde and analyzed using a FACSCalibur (BD).
Studies on readthrough activity of RTC#13 derivatives as measured by FC-ATMS 1981 were performed according to the procedures provided in Example 1.
These two series, 7 and 9, were tested for readthrough activity using an assay in which the ATM protein kinase activity was measured using a flow cytometry-based ATMs1981 autophosphorylation assay (FC-ATM) (Nahas, S. A; et al., Clin. Chem. 2009, 55, 463-72). […] An increased Delta-FI indicates the restoration of ATM kinase activity by a compound.
(§1) These two series, 13 and 15, were again tested for readthrough activity using the assay in which the ATM protein kinase activity was measured by functional flow cytometry (FC-ATM) (Table 4 and FIG. 12). A second assay, irradiation (1R)-induced ATMs1981 nuclear foci formation (IRIF-ATM), was also used to confirm the readthrough activity of these compounds (Table 4 and FIG. 13). Table 3 summarizes the data for the analogues 13 and 15 (at 30 μM), in which the groups R, R′, and X were varied. More detailed data are reported in FIG. 5 (for FC-ATM assay), and in FIG. 6 (for IRIF-ATM assay). […] Thus, the pyrimidinedione unit serves as a good structural replacement for the 2-imino and 2-thioxo thiazolidin-4-one units.
(Flow cytometry measures light scatter and fluorescence of single cells or particles in a stream.)

In test [2] the test system is ATM-Ser1981 foci in AT153LA cells (TGA A). In words: Irradiation-induced ATM-Ser1981 foci (IRIF) in AT153LA cells. For IRIF (ATMs1981): key: the positive results on various assays are also summarized and labeled as '+'. Format: cell-based, human. The settings on record: for IR-induced ATMs1981 foci formation, readthrough activity: A-T153LA cells (TGA), FIG. 13; for IRIF-ATM (%) (30 μM): Table 4, IR-induced ATMs1981 nuclear foci formation; for IRIF (ATMs1981): summary of positive results. As to the method: To evaluate the function of RTC-induced ATM protein, we measured irradiation-induced foci (IRIF) formation of ATM-Ser1981 in the same ATI53LA cells (TGA A). […] The maximum IRIF induction achieved in A-T cells by 10 μM RTC#13 was ˜40% of wild-type level. As a positive readthrough control, 144 μM of G418 (100 μg/ml) was used to treat cells. Our previous studies had shown that, at this concentration, […] induced a maximum level of ATMs1981 IRIF (Lai et al., 2004).
Immunostaining of nuclear foci of ATM-Ser1981 was performed as previously reported (Du et al., 2007). In brief, after being treated with compound for 4 d, cells were irradiated with 2 Gy and incubated at 37° C. for 30 min. The cells were dropped onto coverslips, fixed with 4% paraformaldehyde, and permeabilized. Coverslips were blocked for 1 h and incubated with mouse anti-ATM pSer1981 for 1 h (1:500; Rockland Immunochemicals, Inc). After a second blocking, cells were stained with FITC-conjugated anti-mouse IgG (1:150; Jackson ImmunoResearch Laboratories) for 1 h and mounted onto slides.
Studies on IR-induced ATMs1981 foci formation by RTC#13 and derivatives 13a, 13b, 13d, 13e, 13f, 13g, 13h, 13i, 13j, and 13k in A-T153LA cells (TGA) were performed according to the procedures provided in Example 1.
as §1

Setting [3] is: Table 2, compounds 7, 30 µM, change in fluorescence intensity before and after ionizing radiation.
Setting [4] is: Table 4, compounds 13 and 15, 30 μM.

For the compound `CN1C(=N)S/C(=C\c2ccc(-c3ccccc3[N+](=O)[O-])o2)C1=O` [Compound 7c, (Z)-2-imino-3-methyl-5-((5-(2-nitrophenyl)furan-2-yl)methylene)thiazolidin-4-one], the “FC-ATM (Delta-FI, 30 μM)” value in test [1] (setting [3]) is on record as “negative”.
The same measure, in the same setting: the value for `N=C1NC(=O)/C(=C/c2ccc(-c3ccccc3F)o2)S1` [Compound 7g, (Z)-5-((5-(2-fluorophenyl)furan-2-yl)methylene)-2-iminothiazolidin-4-one] was “negative”.
Take `COc1cccc(-c2ccc(/C=C3\SC(=N)NC3=O)o2)c1` [Compound 7h, (Z)-2-imino-5-((5-(3-methoxyphenyl)furan-2-yl)methylene)thiazolidin-4-one]: the “FC-ATM (Delta-FI, 30 μM)” value in test [1] (setting [3]) is given as 1.90. In test [1], the FCATMs1981 result is “+”.
With `N=C1NC(=O)/C(=C/c2ccc(-c3cccc(Cl)c3)o2)S1` [Compound 7i, (Z)-5-((5-(3-chlorophenyl)furan-2-yl)methylene)-2-iminothiazolidin-4-one], the “FC-ATM (Delta-FI, 30 μM)” value in test [1] (setting [3]) is listed as 2.27. In addition, the FCATMs1981 result in test [1] was “+”.
As to `O=C1NC(=S)S/C1=C\c1ccc(-c2ccccc2C(F)(F)F)o1` [Compound 7k, (Z)-2-thioxo-5-((5-(2-(trifluoromethyl)phenyl)furan-2-yl)methylene)thiazolidin-4-one], the “FC-ATM (Delta-FI, 30 μM)” value in test [1] (setting [3]) was “negative”.
The same measure, in the same setting: the value for `COc1ccccc1-c1ccc(/C=C2\SC(=S)NC2=O)o1` [Compound 7l, (Z)-5-((5-(2-methoxyphenyl)furan-2-yl)methylene)-2-thioxothiazolidin-4-one] was “negative”.
In the case of `COc1cccc(-c2ccc(/C=C3\SC(=S)NC3=O)o2)c1` [Compound 7o], the “FC-ATM (Delta-FI, 30 μM)” value in test [1] (setting [3]) came to 2.66. Further, the FCATMs1981 entry in test [1] is given as “+”.
For `O=C1NC(=S)S/C1=C\c1ccc(-c2cccc(Cl)c2)o1` [Compound 7p, (Z)-5-((5-(3-chlorophenyl)furan-2-yl)methylene)-2-thioxothiazolidin-4-one], in that order: 2.86 and “+”.
On to `N=C1NC(=O)/C(=C/c2cc3ccccc3o2)S1` [Compound 9a, (Z)-5-(benzofuran-2-ylmethylene)-2-iminothiazolidin-4-one], for which the “FC-ATM (Delta-FI, 30 μM)” value in test [1] (Table 3, compounds 9, 30 μM) is listed as “negative”.
Same read-out and setting: the result for `N=C1NC(=O)/C(=C/c2cc3ccccc3[nH]2)S1` [Compound 9b, (Z)-5-((1H-indol-2-yl)methylene)-2-iminothiazolidin-4-one] reads “negative”.
Still for that read-out and setting: the value for `N=C1NC(=O)/C(=C/c2c[nH]c3ccccc23)S1` [Compound 9c, (Z)-5-((1H-indol-3-yl)methylene)-2-iminothiazolidin-4-one] was “negative”; that for `N=C1NC(=O)/C(=C/c2ccc(-c3ccccn3)o2)S1` [Compound 9d, (Z)-2-imino-5-((5-(pyridin-2-yl)furan-2-yl)methylene)thiazolidin-4-one] was “negative”; that for `N=C1NC(=O)/C(=C/c2ccc(-c3ccccc3)s2)S1` [Compound 9e, (Z)-2-imino-5-((5-phenylthiophen-2-yl)methylene)thiazolidin-4-one] was “negative”.
The same measure, in the same setting: the value for `N=C1NC(=O)/C(=C/c2ccco2)S1` [Compound 9f, (Z)-5-(furan-2-ylmethylene)-2-iminothiazolidin-4-one] was “negative”.
As to `O=C1NC(=S)S/C1=C\c1cc2ccccc2o1` [Compound 9g, (Z)-5-(benzofuran-2-ylmethylene)-2-thioxothiazolidin-4-one], in test [1], the “FC-ATM readthrough activity” value is reported as “positive results” and the FCATMs1981 entry is recorded as “+”. The “FC-ATM (Delta-FI, 30 μM)” value in test [1] (Table 3, compounds 9, 30 μM) worked out at 3.50.
As for `O=C1NC(=S)S/C1=C\c1cc2ccccc2[nH]1` [Compound 9h, (Z)-5-((1H-indol-2-yl)methylene)-2-thioxothiazolidin-4-one], the “FC-ATM (Delta-FI, 30 μM)” value in test [1] (Table 3, compounds 9, 30 μM) is listed as “negative”.
Still for that read-out and setting: the result for `O=C1NC(=S)S/C1=C\c1c[nH]c2ccccc12` [Compound 9i, (Z)-5-((1H-indol-3-yl)methylene)-2-thioxothiazolidin-4-one] reads “negative”; that for `O=C1NC(=S)S/C1=C\c1ccc(-c2ccccn2)o1` [Compound 9j, (Z)-5-((5-(pyridin-2-yl)furan-2-yl)methylene)-2-thioxothiazolidin-4-one], “negative”.
`O=c1[nH]c(=O)n(Cc2ccc(-c3ccccc3[N+](=O)[O-])o2)cc1F` [Compound 13b, 5-fluoro-1-((5-(2-nitrophenyl)furan-2-yl)methyl)pyrimidine-2,4(1H,3H)-dione]: in test [2], the “IR-induced ATMs1981 foci formation, readthrough activity” value (“IR-induced ATMs1981 foci formation” for short) is “statistically significant readthrough activity” and the “IRIF-ATM (%) (30 μM)” value was determined as 14.5%. For the same compound, the “FC-ATM (Delta-FI, 30 μM)” value in test [1] (setting [4]) is 2.08. The FCATMs1981 entry in test [1] is reported as “+”.
In the case of `Cc1cn(Cc2ccc(-c3ccccc3[N+](=O)[O-])o2)c(=O)[nH]c1=O` [Compound 13c], the “IRIF-ATM (%) (30 μM)” value in test [2] is on record as “negative”. For the same compound, in test [1] (setting [4]), the “FC-ATM (Delta-FI, 30 μM)” value was “negative”.
Take `O=Cc1cn(Cc2ccc(-c3ccccc3[N+](=O)[O-])o2)c(=O)[nH]c1=O` [Compound 13d, 1-((5-(2-nitrophenyl)furan-2-yl)methyl)-2,4-dioxo-1,2,3,4-tetrahydropyrimidine-5-carbaldehyde]: in test [2], the “IR-induced ATMs1981 foci formation” value is recorded as “statistically significant readthrough activity”; the “IRIF-ATM (%) (30 μM)” value was 16.0%; the “IRIF (ATMs1981)” value is reported as “+”. The “FC-ATM (Delta-FI, 30 μM)” value in test [1] (setting [4]) amounted to 2.24. The FCATMs1981 entry in test [1] is “+”.
For the compound `O=c1ccn(Cc2ccc(-c3ccccc3)o2)c(=O)[nH]1` [Compound 13e, 1-((5-phenylfuran-2-yl)methyl)pyrimidine-2,4(1H,3H)-dione], in test [2], the “IR-induced ATMs1981 foci formation” value is “statistically significant readthrough activity”; the “IRIF-ATM (%) (30 μM)” value is reported as 9.4%; the “IRIF (ATMs1981)” value was “+”. In test [1] (setting [4]), the “FC-ATM (Delta-FI, 30 μM)” value was determined as 3.42. Moreover, the FCATMs1981 entry in test [1] was “+”.
On to `Cc1cn(Cc2ccc(-c3ccccc3)o2)c(=O)[nH]c1=O` [Compound 13f, 5-methyl-1-((5-phenylfuran-2-yl)methyl)pyrimidine-2,4(1H,3H)-dione], for which, in test [2], the “IR-induced ATMs1981 foci formation” value is listed as “statistically significant readthrough activity”; the “IRIF-ATM (%) (30 μM)” value stood at 22.75%; the “IRIF (ATMs1981)” value is reported as “+”. For the same compound, in test [1] (setting [4]), the “FC-ATM (Delta-FI, 30 μM)” value turned out to be 3.80. Further, the FCATMs1981 result in test [1] is listed as “+”.
Take `O=c1ccn(Cc2ccc(-c3ccccc3F)o2)c(=O)[nH]1` [Compound 13g, 1-((5-(2-fluorophenyl)furan-2-yl)methyl)pyrimidine-2,4(1H,3H)-dione]: in test [2], the “IR-induced ATMs1981 foci formation” value is recorded as “all RTC#13 derivatives show statistically significant readthrough activity except for Derivative 13g” and the “IRIF-ATM (%) (30 μM)” value was found to be 20%. The “FC-ATM (Delta-FI, 30 μM)” value in test [1] (setting [4]) amounted to 5.43. Further, in test [1], the FCATMs1981 result is given as “+”.
`Cc1cn(Cc2ccc(-c3ccccc3F)o2)c(=O)[nH]c1=O` [Compound 13h, 1-((5-(2-fluorophenyl)furan-2-yl)methyl)-5-methylpyrimidine-2,4(1H,3H)-dione]: in test [2], the “IR-induced ATMs1981 foci formation” value is reported as “statistically significant readthrough activity”; the “IRIF-ATM (%) (30 μM)” value is recorded as 9.6%; the “IRIF (ATMs1981)” value is given as “+”. Moreover, in test [1] (setting [4]), the “FC-ATM (Delta-FI, 30 μM)” value came out at 6.16. For the same compound, the FCATMs1981 entry in test [1] is “+”.
